Laboratory results published in publication PMC2680961, “Homologous desensitization of signalling by the alpha (α) isoform of the human thromboxane A2 receptor: A specific role for nitric oxide signalling” (Biochimica et Biophysica Acta, 2007).
Substitutions are numbered along the chain they refer to.

Assays:
TPα = biological target: T1, TPα (Homo sapiens, UniProt P21731); test: Intracellular calcium mobilization, HEK.TPα cells; assay type: cell-based; settings: HEK.TPα
T1 construct: expressed in transfected cells
T1 sequence (P21731 1-343): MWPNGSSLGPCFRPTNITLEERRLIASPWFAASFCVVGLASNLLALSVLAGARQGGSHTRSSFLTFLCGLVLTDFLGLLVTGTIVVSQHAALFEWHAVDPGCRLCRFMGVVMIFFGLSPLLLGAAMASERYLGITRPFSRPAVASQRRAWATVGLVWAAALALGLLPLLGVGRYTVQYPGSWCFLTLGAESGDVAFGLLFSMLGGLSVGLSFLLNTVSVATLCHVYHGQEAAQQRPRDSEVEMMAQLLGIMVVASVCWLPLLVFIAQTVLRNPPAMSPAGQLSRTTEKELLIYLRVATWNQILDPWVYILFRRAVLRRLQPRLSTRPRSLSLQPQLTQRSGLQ
Method: (§1) Measurement of intracellular calcium mobilization ([Ca^2+]i) in FURA2/AM preloaded HEK 293 cell lines (2 × 10^6 cells/dish), each transiently co-transfected with pADVA (10 μg), and pCMV:Gαq (25 μg), was carried out as previously described. To investigate the effect of GRK2/βARK1 on TP-mediated [Ca^2+]i mobilization, HEK.TPα or HEK.TPβ cells (2 × 10^6 cells/dish) were co-transfected with pADVA (10 μg), pCMV:Gαq (25 μg) along with pRK5:βARK1^495–689 (25 μg), encoding a dominant negative form of GRK2/βARK1[39]. Approximately 48 h post-transfection, cells were harvested by scraping, washed twice in ice-cold PBS and resuspended in HBSSHB (modified Ca^2+/Mg^2+-free Hank's buffered salt solution, containing […], pH 7.67, 0.1% bovine serum albumin (BSA)) buffer at 10^7 cells/ml and incubated in the dark with 5 μM FURA2/AM for 45 min at 37 °C. Cells were collected by centrifugation (900×g, 5 min), washed once in an equal volume of HBSSHB, and were finally resuspended in HBSSHB buffer at 10^7 cells/ml and kept at room temperature in the dark for 40 min. For each measurement of [Ca^2+]i mobilization, aliquots of cells were diluted to 0.825 × 10^6 cells/ml in HBSSHB, 1 mM CaCl2 and FURA2 fluorescence was recorded (2 ml aliquots of cells) at 37^ °C with gentle stirring with a Perkin Elmer-Cetus LS50-B spectrofluorometer at excitation wavelengths of 340 nm and 380 nm and emission wavelength of 510 nm, respectively.
[…] To assess agonist-mediated homologous desensitization, cells (0.825 × 10^6 cells/ml; 2 ml per assay) were stimulated with 1 μM U46619 (Primary stimulation) or, as a control, with the vehicle for 4 min; thereafter, cells were collected by centrifugation (900×g, 5 min); were washed twice in 2 ml HBSSHB, 1 mM CaCl2; and finally resuspended in 2 ml HBSSHB,1 mM CaCl2 and were left to recover over various time intervals (ranging from 0 to 60 min); thereafter, cells re-stimulated with 1 μM U46619 (Secondary stimulation) and changes in [Ca^2+]i mobilization were monitored as a function of time. To assess the role of protein kinase (PK) A, PKC or PKG on U46619-mediated desensitization of TPα signalling, cells were pre-incubated with the PKA inhibitor H-89 (10 μM), the PKC inhibitor GF 109203X (50 nM) or the PKG inhibitor KT 5823 (50 nM), for 15 min and respective kinase inhibitors were maintained throughout the primary/secondary U46619-stimulations and during the washes.
The vehicle had no effect on U46619-mediated [Ca^2+]i mobilization. Calibration of the signal was performed in each sample by adding 0.2% Triton X-100 to obtain the maximal fluorescence ratio (Rmax) and then 1 mM EGTA to obtain the minimal fluorescence ratio (Rmin). The ratio of the fluorescence at 340 nm to that at 380 nm is a measure of [Ca^2+]i, which assumes a Kd of 225 nM Ca^2+ for FURA2/AM. The results presented in the figures are representative data from at least three or four independent experiments and are plotted as changes in Ca^2+i mobilized (Δ[Ca^2+]i (nM)) as a function of time (s) upon ligand stimulation. Changes in [Ca^2+]i mobilization were determined by measuring peak rises in [Ca^2+]i mobilized (Δ[Ca^2+]i) and were calculated as mean changes in Δ[Ca^2+]i ± S.E.M. (nM).

TPα^S145A = biological target: T2, TPα^S145A (Homo sapiens, UniProt P21731, S145A); test: Intracellular calcium mobilization, HEK.TPα^S145A cells; assay type: cell-based; settings: for Δ[Ca2+]i, U46619-induced: HEK.TPα^S145A
T2 construct: expressed in transfected cells
T2 sequence (P21731 1-343 S145A): T1 sequence (P21731 1-343) with S145A
Method: as §1, with “Cells were collected by centrifugation (900×g, 5 min), washed once in an equal volume of HBSSHB, and were finally resuspended in HBSSHB buffer at 10^7 cells/ml and kept at room temperature in the dark for 40 min.” left out
Cells were stimulated with the TP agonist U46619 (1 μM) and changes in [Ca^2+]i mobilization were monitored as a function of time. To assess agonist-mediated homologous desensitization, cells (0.825 × 10^6 cells/ml; 2 ml per assay) were stimulated with 1 μM U46619 (Primary stimulation) or, as a control, with the vehicle for 4 min; thereafter, cells were collected by centrifugation (900×g, 5 min); were washed twice in 2 ml HBSSHB, 1 mM CaCl2; and finally resuspended in 2 ml HBSSHB,1 mM CaCl2 and were left to recover over various time intervals (ranging from 0 to 60 min); thereafter, cells re-stimulated with 1 μM U46619 (Secondary stimulation) and changes in [Ca^2+]i mobilization were monitored as a function of time. […]

- Δ[Ca2+]i, U46619-induced (TPα; + GRK^DN (βARK1^495–689), primary 1 μM U46619): 150 ± 7.5 nM
- Δ[Ca2+]i, U46619-induced (TPα; + GRK^DN, secondary 1 μM U46619 at 15 min): 0 nM
- Δ[Ca2+]i, U46619-induced (TPα; primary stimulation, 1 μM U46619 4 min): 174 ± 8.8 nM
- Δ[Ca2+]i, U46619-induced (TPα; secondary stimulation 1 μM U46619 at 15 min after primary, after washout): 0 nM
- Δ[Ca2+]i, U46619-induced (TPα; secondary stimulation 1 μM U46619 at 60 min after primary, after washout): 0 nM
- Δ[Ca2+]i, U46619-induced (TPα; vehicle as primary stimulation, washout, 1 μM U46619 at 60 min): 191.5 ± 25.5 nM
- Δ[Ca2+]i, U46619-induced (TPα; − GRK^DN (pRK5 control), primary 1 μM U46619): 165 ± 9 nM
- Δ[Ca2+]i, U46619-induced (TPα; − GRK^DN, secondary 1 μM U46619 at 15 min): 0 nM
- Δ[Ca2+]i, U46619-induced (TPα^S145A; primary 1 μM U46619 4 min): 157 ± 3.8 nM
- Δ[Ca2+]i, U46619-induced (TPα^S145A; secondary 1 μM U46619 at 15 min): 37 ± 4.2 nM
- secondary U46619 [Ca2+]i response relative to primary response (TPα^S145A; TPα^S145A): 24%
SMILES: CCCCC[C@H](O)/C=C/[C@@H]1[C@@H](C/C=C\CCCC(=O)O)[C@H]2CO[C@@H]1C2 [U46619]
